The source of these data is ChEMBL document CHEMBL1142248, “Structure-activity relationships and pharmacokinetic parameters of quinoline acylsulfonamides as potent and selective antagonists of the EP(4) receptor” (Bioorg Med Chem Lett, 2008).

The nature of data set [1]: Half life in dog at 2 mg/kg, iv. It counts as ADME, organism-based, Canis lupus familiaris. Also noted: dose 2 mg/kg, route intravenous. The following applies: in vivo.
The nature of data set [2]: Clearance in dog at 10 mg/kg, po or 2 mg/kg, iv. It is filed as ADME, organism-based, Canis lupus familiaris. The following applies: in vivo.
Data set [3] in a line: Volume of distribution at steady state in dog at 10 mg/kg, po or 2 mg/kg, iv. The following applies: in vivo, read-out: Vdss. It counts as ADME, organism-based, Canis lupus familiaris.
Data set [4] in a line: Bioavailability in rat at 20 mg/kg, po or 5 mg/kg, iv. It counts as ADME, organism-based. The following applies: in vivo.
A short description of data set [5]: Half life in rat at 5 mg/kg, iv. It counts as ADME, organism-based. Also noted: dose 5 mg/kg, route intravenous. The note with it: in vivo.
The nature of data set [6]: Clearance in rat at 20 mg/kg, po or 5 mg/kg, iv. It is filed as ADME, organism-based. The following applies: in vivo.
The nature of data set [7]: Volume of distribution at steady state in rat at 20 mg/kg, po or 5 mg/kg, iv. It is filed as ADME, organism-based. The following applies: in vivo, read-out: Vdss.
Data set [8] is described as follows: Bioavailability in guinea pig at 20 mg/kg, po or 5 mg/kg, iv. It counts as ADME, organism-based, Cavia porcellus. The following applies: in vivo.
Data set [9] is described as follows: Half life in guinea pig at 5 mg/kg, iv. It is filed as ADME, organism-based, Cavia porcellus. Also noted: dose 5 mg/kg, route intravenous. The note with it: in vivo.
A short description of data set [10]: Clearance in guinea pig at 20 mg/kg, po or 5 mg/kg, iv. It is filed as ADME, organism-based, Cavia porcellus. The following applies: in vivo.
Data set [11] is described as follows: Volume of distribution at steady state in guinea pig at 20 mg/kg, po or 5 mg/kg, iv. It counts as ADME, organism-based, Cavia porcellus. The note with it: in vivo, read-out: Vdss.
The nature of data set [12]: Bioavailability in dog at 10 mg/kg, po or 2 mg/kg, iv. It is filed as ADME, organism-based, Canis lupus familiaris. The note with it: in vivo.
Data set [13] in a line: Volume of distribution at steady state in mouse at 100 mg/kg, po or 10 mg/kg, iv. It is filed as ADME, organism-based. The following applies: in vivo, read-out: Vdss.
A short description of data set [14]: Bioavailability in rat at 20 mg/kg, po or 10 mg/kg, iv. It counts as ADME, organism-based. The note with it: in vivo.
Data set [15] in a line: Half life in rat at 10 mg/kg, iv. It counts as ADME, organism-based. Also noted: dose 10 mg/kg, route intravenous. The note with it: in vivo.
A short description of data set [16]: Clearance in rat at 20 mg/kg, po or 10 mg/kg, iv. It is filed as ADME, organism-based. The note with it: in vivo.
Data set [17] in a line: Volume of distribution at steady state in rat at 20 mg/kg, po or 10 mg/kg, iv. It is filed as ADME, organism-based. The note with it: in vivo, read-out: Vdss.
The nature of data set [18]: Metabolic stability in rhesus monkey hepatocytes at 20 uM after 2 hrs. It counts as ADME, cell-based, Macaca mulatta, Hepatocyte. The note with it: read-out: Stability.
Data set [19] can be described thus: Clearance in dog at 4 mg/kg, po or 5 mg/kg, iv. It counts as ADME, organism-based, Canis lupus familiaris. The following applies: in vivo.
Data set [20] in a line: Volume of distribution at steady state in rhesus monkey at 4 mg/kg, po or 2 mg/kg, iv. It is filed as ADME, organism-based, Macaca mulatta. The following applies: in vivo, read-out: Vdss.
Data set [21] can be described thus: Clearance in rhesus monkey at 4 mg/kg, po or 2 mg/kg, iv. It is filed as ADME, organism-based, Macaca mulatta. The following applies: in vivo.
Data set [22] in a line: Half life in rhesus monkey at 2 mg/kg, iv. It counts as ADME, organism-based, Macaca mulatta. Also on record: dose 2 mg/kg, route intravenous. The note with it: in vivo.
The nature of data set [23]: Bioavailability in rhesus monkey at 4 mg/kg, po or 2 mg/kg, iv. It is filed as ADME, organism-based, Macaca mulatta. The note with it: in vivo.
Data set [24] in a line: Metabolic stability in dog hepatocytes at 20 uM after 2 hrs. The following applies: read-out: Stability. It counts as ADME, cell-based, Canis lupus familiaris, Hepatocyte.
Data set [25] can be described thus: Metabolic stability in rat hepatocytes at 20 uM after 2 hrs. The following applies: read-out: Stability. It is filed as ADME, cell-based, Hepatocyte.
The nature of data set [26]: Volume of distribution at steady state in dog at 4 mg/kg, po or 5 mg/kg, iv. It is filed as ADME, organism-based, Canis lupus familiaris. The note with it: in vivo, read-out: Vdss.
Data set [27] is described as follows: Half life in dog at 5 mg/kg, iv. It is filed as ADME, organism-based, Canis lupus familiaris. Also noted: dose 5 mg/kg, route intravenous. The following applies: in vivo.
Data set [28] can be described thus: Bioavailability in dog at 4 mg/kg, po or 5 mg/kg, iv. It counts as ADME, organism-based, Canis lupus familiaris. The following applies: in vivo.
Data set [29] can be described thus: Metabolic stability in human hepatocytes at 20 uM after 2 hrs. It is filed as ADME, cell-based, Hepatocyte. The note with it: read-out: Stability.
Data set [30] is described as follows: Half life in mouse at 10 mg/kg, iv. It is filed as ADME, organism-based. Also noted: dose 10 mg/kg, route intravenous. The note with it: in vivo.
Data set [31] is described as follows: Bioavailability in mouse at 100 mg/kg, po or 10 mg/kg, iv. It is filed as ADME, organism-based. The following applies: in vivo.
A short description of data set [32]: Clearance in mouse at 100 mg/kg, po or 10 mg/kg, iv. The note with it: in vivo. It counts as ADME, organism-based.

Usually half-life stands for how long it takes for the measured level to halve. In general, bioavailability refers to dose-corrected exposure relative to a reference, in per cent. Regarding `CCOc1c2c(c(OCC)c3ncccc13)CN(c1ccc(CS(=O)(=O)[N-]C(=O)Cc3ccccc3OC)cc1C)C2=O.[Na+]`, the half-life in [1] is 4.1 h; in data set [5], 2.7 h; in data set [9] it was 8.6 h. The clearance in data set [2] is 0.024 L/h/kg; in [6], 0.468 L/h/kg; in [10], 0.216 L/h/kg. The Vd in data set [3] worked out at 0.1 L/kg; in data set [7] it was 1.6 L/kg; in data set [11], 0.6 L/kg. For the same compound, the bioavailability in [4] is more than 99%; in [8], 18%; in data set [12], 49%.
In the case of `COc1cccc(OC)c1C1(C(=O)[N-]S(=O)(=O)Cc2ccc(N3Cc4c(c(OCC(F)(F)F)c5cccnc5c4OCC(F)(F)F)C3=O)c(C)c2)CC1.[Na+]`, the Vd stood at 0.7 L/kg in [13], 0.7 L/kg in [17], 0.3 L/kg in data set [20] and 0.2 L/kg in data set [26]. The bioavailability in data set [14] was found to be 73%; in data set [23], 40%; in [28], 69%; in data set [31], 44%. Also, the half-life in data set [15] was 14.8 h; in [22], 3.8 h; in [27] it was 13.2 h; in data set [30] it was 3.5 h. Further, the clearance was found to be 0.036 L/h/kg in [16], 0.012 L/h/kg in [19], 0.12 L/h/kg in data set [21] and 0.156 L/h/kg in data set [32]. The remaining at 2 h, 20 µM in [18] was determined as 39%; in data set [24], 20%; in [25], 6%; in [29], 36%.
